13 molecules from US10385052B2, “Tricyclic compound and JAK inhibitor” (NISSAN CHEMICAL CORPORATION, priority 2014, dated 2019) can be followed below.

The subject of experiment [1] is cytokine signaling via JAK. Kind of experiment: Signal assay in rat whole blood (STAT phosphorylation assay). In kind it is cell-based. To be noted: T-cell; female Lewis rat whole blood, rat IL-6 100 ng/mL, phosphated STAT-1 in CD3 positive T cells. The procedure:
2. Signal Assay in Rat Whole Blood
The inhibitory activities of the compounds of the present invention obtained in Synthetic Examples 1 and 2 against cytokine signaling via JAK were measured by STAT phosphorylation assay using rat whole blood.
Female Lewis rats were purchased from CHARLES RIVER LABORATORIES JAPAN, INC.
Rat IL-6 was purchased from PeproTech.
Each compound was used at three consecutive concentrations of 1 μM, 0.1 μM and 0.01 μM, or 10 μM, 1 μM and 0.1 μM.
The concentration of rat IL-6 was 100 ng/mL.
The concentration of FITC-CD3 was 1 μg/mL.
The blood and a compound were put into each Costar assay block tube and incubated at 37° C. for 15 minutes, then incubated with FITC-CD3 at 37° C. for 15 minutes, incubated with rat IL-6 at 37° C. for 15 minutes and incubated with 10 times as much of BD Phosflow Lyse/Fix Buffer as the blood at 37° C. for 12 minutes. Centrifugal separation was carried out at 5,884 m/s^2 for 6 minutes with a centrifugal separator to precipitate the cells, and the supernatants were removed.
(§1) The cell pellets were washed with 1 mL of phosphate buffered saline (PBS), then incubated with 0.6 mL of BD Phosflow Perm Buffer III on ice for 30 minutes and centrifuged at 5,884 m/s^2 for 6 minutes by means of a centrifugal separator to precipitate the cells, and the supernatants were removed.
The cell pellets were washed with 0.3 mL of BD Pharmingen Stain Buffer and incubated with 0.1 mL of BD Pharmingen Stain Buffer and 10 μL of BD Phosflow STAT-1 at room temperature for 30 minutes. After addition of 0.1 mL of BD Pharmingen Stain Buffer, the cells were centrifuged at 5,884 m/s^2 for 6 minutes by means of a centrifugal separator to precipitate the cells, and the supernatants were removed.
(§2) The cell pellets were washed with 0.3 mL of BD Pharmingen Stain Buffer, and 0.12 mL of BD Pharmingen Stain Buffer was added. The cytokine signaling inhibition was measured with FACS Cantoll (manufactured by BD) by detecting FITC-labeled CD3 positive T cells and detecting the amount of phosphated STAT-1 protein in the cells as the PE fluorescence. From the plot of the logarithm of a compound concentration and inhibitory activity, the IC50 value was calculated.

Experiment [2] deals with cytokine signaling via JAK. In words: Signal assay in human whole blood (STAT phosphorylation assay). To be noted: T-cell, human IL-6 100 ng/mL, phosphated STAT-1 in CD3 positive T cells. In kind it is cell-based. The method, then: 3. Signal Assay in Human Whole Blood
The inhibitory activities of the compounds of the present invention obtained in Synthetic Examples 3 to 7 against cytokine signaling via JAK were measured by STAT phosphorylation assay using human whole blood.
Human whole blood was collected from healthy humans.
Human IL-6 was purchased from R&D systems.
Each compound was used at six concentrations of 3 μM, 1.5 μM, 0.75 μM, 0.38 μM, 0.19 μM and 0.093 μM, at six concentrations of 2 μM, 1 μM, 0.5 μM, 0.25 μM, 0.13 μM and 0.063 μM, or at six concentrations of 10 μM, 5 μM, 2.5 μM, 1.25 μM, 0.63 μM and 0.31 μM.
The concentration of human IL-6 was 100 ng/mL.
Human blood and a compound were put into each Costar assay block tube and incubated at 37° C. for 30 minutes, then incubated with human IL-6 at 37° C. for 15 minutes and incubated with 10 times as much of BD Phosflow Lyse/Fix Buffer as the blood at 37° C. for 12 minutes. Centrifugal separation was carried out at 5,884 m/s^2 for 6 minutes with a centrifugal separator to precipitate the cells, and the supernatants were removed.
as §1
The cell pellets were washed with 0.3 mL of BD Pharmingen Stain Buffer and incubated with 0.1 mL of BD Pharmingen Stain Buffer, 10 μL of BD Phosflow STAT-1 and 5 μL of FITC-hCD3 at room temperature for 30 minutes. After addition of 0.1 mL of BD Pharmingen Stain Buffer, the cells were centrifuged at 5,884 m/s^2 for 6 minutes by means of a centrifugal separator to precipitate the cells, and the supernatants were removed.
as §2

For the next experiment, the target named is Tyk2 (Homo sapiens (Human), UniProt P29597). In words: Tyk2 enzyme assay. The following applies: enzyme 0.25 μg/mL, ATP 20 μM. In kind it is biochemical. The method, then:
(§3) The JAK inhibitory activities of compounds of the present invention were measured.
(§4) The enzymes (JAK1, JAK2, JAK3 and Tyk2) were purchased from Carna Biosciences, Inc.
(§5) As the substrate for the enzymes (hereinafter referred to as the substrate), LANCE Ultra ULight-JAK-1 (Tyr1023) Peptide (manufactured by PerkinElmer Co., Ltd.) was used.
(§6) As the antibody for detecting phosphorylation of the substrate, LANCE Ultra Europium-anti-phospho tyrosine antibody (PT66) (manufactured by PerkinElmer Co., Ltd.) was used.
(§7) The compounds of the present invention, the enzymes (JAK1, JAK2, JAK3 and Tyk2), the substrate and ATP were used for the assays after diluted with the assay buffer.
(§8) The enzyme concentrations and the ATP concentrations in the respective enzyme (JAK1, JAK2, JAK3 and Tyk2) assays were as follows.
Tyk2 enzyme assay; the enzyme concentration was 0.25 μg/mL and the ATP concentration was 20 μM.
(§9) The concentration of the substrate for the enzymes was 25 nM.
(§10) Dilute solutions of compounds and enzymes were dispensed into wells of a 384-well black plate (manufactured by Greiner bio-one) and preincubated at room temperature for 5 minutes.
(§11) Then, a dilute solution of the substrate and then a dilute solution of ATP were added, and the plate was incubated at room temperature for 30 minutes.
(§12) Then, a dilute solution of EDTA and then a dilute solution of PT66 were added, and the plate was incubated at room temperature for 1 hour.
(§13) The fluorescences were measured with ARVO-HTS, and from the plot of logarithm of a compound concentration and inhibitory activity, the IC50 value was calculated.

Another experiment has as its target JAK2 (Homo sapiens (Human), UniProt O60674). In words: JAK2 enzyme assay. In kind it is biochemical. To be noted: enzyme 0.013 μg/mL, ATP 10 μM. The method, then: as §3, §4, §5, §6, §7, §8
JAK2 enzyme assay; the enzyme concentration was 0.013 μg/mL, and the ATP concentration was 10 μM.
as §9, §10, §11, §12, §13

A further experiment deals with JAK3 (Homo sapiens (Human), UniProt P52333). Kind of experiment: JAK3 enzyme assay. In kind it is biochemical. The following applies: enzyme 0.020 μg/mL, ATP 3 μM. The method, then:
as §3, §4, §5, §6, §7, §8
JAK3 enzyme assay; the enzyme concentration was 0.020 μg/mL, and the ATP concentration was 3 μM.
as §9, §10, §11, §12, §13

The target of the next experiment is JAK1 (Homo sapiens (Human), UniProt P23458). Kind of experiment: JAK1 enzyme assay. In kind it is biochemical. To be noted: enzyme 0.5 μg/mL, ATP 70 μM. The method, then:
as §3, §4, §5, §6, §7, §8
JAK1 enzyme assay; the enzyme concentration was 0.5 μg/mL, and the ATP concentration was 70 μM.
as §9, §10, §11, §12, §13

Chain of Tyk2 (P29597 whole entry): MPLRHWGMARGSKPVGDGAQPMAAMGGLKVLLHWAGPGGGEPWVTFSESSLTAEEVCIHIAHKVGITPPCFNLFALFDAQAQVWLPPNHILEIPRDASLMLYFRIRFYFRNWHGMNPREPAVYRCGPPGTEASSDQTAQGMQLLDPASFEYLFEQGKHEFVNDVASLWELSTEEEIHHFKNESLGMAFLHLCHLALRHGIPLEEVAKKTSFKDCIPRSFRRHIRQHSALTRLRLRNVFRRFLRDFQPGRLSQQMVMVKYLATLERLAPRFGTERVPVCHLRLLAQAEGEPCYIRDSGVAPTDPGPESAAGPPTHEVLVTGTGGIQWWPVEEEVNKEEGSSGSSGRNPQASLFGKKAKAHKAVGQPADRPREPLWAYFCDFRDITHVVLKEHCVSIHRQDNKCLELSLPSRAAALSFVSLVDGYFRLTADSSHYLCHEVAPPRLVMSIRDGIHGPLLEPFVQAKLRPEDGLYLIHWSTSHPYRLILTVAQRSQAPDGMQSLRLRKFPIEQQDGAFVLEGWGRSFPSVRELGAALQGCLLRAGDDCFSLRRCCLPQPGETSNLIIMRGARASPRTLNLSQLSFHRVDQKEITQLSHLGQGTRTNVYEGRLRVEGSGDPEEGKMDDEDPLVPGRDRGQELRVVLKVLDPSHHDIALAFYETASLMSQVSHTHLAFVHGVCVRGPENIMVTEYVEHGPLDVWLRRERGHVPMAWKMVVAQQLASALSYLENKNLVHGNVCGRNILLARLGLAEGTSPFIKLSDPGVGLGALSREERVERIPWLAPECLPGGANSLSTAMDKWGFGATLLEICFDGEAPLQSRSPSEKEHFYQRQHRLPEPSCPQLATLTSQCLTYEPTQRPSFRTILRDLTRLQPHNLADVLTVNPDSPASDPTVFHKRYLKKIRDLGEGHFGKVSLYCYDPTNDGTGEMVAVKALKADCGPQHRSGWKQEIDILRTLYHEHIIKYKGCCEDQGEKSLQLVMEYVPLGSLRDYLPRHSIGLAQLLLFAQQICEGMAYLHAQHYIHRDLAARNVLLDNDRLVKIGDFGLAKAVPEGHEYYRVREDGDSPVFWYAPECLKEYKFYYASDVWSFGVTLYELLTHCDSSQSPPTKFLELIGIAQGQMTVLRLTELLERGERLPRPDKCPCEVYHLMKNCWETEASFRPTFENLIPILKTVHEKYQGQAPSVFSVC
Chain of JAK2 (O60674 whole entry): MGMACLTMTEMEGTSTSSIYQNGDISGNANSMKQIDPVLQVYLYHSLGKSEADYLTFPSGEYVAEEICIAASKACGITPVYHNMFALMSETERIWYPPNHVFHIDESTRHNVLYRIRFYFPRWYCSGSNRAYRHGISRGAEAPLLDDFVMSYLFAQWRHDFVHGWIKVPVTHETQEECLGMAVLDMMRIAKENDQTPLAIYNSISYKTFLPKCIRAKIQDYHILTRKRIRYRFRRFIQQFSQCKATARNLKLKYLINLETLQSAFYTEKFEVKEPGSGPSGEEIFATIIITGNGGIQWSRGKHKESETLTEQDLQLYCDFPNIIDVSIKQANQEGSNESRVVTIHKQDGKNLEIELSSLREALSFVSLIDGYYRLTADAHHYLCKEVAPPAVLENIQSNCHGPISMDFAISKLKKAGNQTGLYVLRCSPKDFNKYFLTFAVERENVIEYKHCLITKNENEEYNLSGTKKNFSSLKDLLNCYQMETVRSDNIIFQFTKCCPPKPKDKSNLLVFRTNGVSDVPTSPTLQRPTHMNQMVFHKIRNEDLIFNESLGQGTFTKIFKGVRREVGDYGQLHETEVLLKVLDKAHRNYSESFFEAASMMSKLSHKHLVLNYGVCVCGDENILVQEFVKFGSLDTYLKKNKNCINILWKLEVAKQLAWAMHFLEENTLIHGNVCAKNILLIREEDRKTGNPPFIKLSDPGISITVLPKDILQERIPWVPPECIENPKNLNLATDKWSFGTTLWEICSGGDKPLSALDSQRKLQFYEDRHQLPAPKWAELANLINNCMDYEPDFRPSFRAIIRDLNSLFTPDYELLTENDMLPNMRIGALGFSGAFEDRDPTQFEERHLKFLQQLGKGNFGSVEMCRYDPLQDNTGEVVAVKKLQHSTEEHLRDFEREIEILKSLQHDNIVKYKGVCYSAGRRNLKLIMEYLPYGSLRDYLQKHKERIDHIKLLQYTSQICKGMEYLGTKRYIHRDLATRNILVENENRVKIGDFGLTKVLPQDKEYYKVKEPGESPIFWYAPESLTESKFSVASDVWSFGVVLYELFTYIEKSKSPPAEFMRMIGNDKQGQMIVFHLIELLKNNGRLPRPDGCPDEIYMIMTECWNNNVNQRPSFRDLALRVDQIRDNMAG
Chain of JAK1 (P23458 whole entry): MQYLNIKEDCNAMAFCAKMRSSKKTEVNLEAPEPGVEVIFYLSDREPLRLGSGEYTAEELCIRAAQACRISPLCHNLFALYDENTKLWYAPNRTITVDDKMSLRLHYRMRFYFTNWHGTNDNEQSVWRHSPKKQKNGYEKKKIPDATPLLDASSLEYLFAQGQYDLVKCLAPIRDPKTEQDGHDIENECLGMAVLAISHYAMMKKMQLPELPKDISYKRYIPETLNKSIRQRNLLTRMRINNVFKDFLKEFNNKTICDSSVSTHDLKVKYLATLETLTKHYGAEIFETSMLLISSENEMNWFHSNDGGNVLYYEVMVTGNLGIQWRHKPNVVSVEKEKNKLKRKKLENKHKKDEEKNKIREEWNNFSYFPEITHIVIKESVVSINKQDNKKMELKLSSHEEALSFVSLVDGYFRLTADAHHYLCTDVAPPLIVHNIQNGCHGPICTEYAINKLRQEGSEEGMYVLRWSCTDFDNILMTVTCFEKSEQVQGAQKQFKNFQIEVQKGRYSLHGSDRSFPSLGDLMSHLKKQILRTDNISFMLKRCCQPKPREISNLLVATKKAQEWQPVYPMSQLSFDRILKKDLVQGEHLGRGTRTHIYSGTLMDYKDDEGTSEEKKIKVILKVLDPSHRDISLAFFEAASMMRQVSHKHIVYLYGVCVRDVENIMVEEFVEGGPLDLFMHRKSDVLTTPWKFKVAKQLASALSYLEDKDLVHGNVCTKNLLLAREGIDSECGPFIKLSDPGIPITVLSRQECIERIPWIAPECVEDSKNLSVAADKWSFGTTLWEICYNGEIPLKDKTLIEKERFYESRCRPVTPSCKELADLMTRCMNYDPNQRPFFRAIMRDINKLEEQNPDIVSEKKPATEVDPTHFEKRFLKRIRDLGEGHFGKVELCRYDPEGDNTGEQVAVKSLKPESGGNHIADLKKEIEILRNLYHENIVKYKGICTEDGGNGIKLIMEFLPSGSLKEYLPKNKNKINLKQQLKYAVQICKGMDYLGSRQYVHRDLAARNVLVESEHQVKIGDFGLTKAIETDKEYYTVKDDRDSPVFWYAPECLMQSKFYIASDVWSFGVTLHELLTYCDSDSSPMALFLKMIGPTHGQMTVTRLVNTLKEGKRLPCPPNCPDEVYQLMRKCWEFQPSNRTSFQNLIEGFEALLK
Chain of JAK3 (P52333 whole entry): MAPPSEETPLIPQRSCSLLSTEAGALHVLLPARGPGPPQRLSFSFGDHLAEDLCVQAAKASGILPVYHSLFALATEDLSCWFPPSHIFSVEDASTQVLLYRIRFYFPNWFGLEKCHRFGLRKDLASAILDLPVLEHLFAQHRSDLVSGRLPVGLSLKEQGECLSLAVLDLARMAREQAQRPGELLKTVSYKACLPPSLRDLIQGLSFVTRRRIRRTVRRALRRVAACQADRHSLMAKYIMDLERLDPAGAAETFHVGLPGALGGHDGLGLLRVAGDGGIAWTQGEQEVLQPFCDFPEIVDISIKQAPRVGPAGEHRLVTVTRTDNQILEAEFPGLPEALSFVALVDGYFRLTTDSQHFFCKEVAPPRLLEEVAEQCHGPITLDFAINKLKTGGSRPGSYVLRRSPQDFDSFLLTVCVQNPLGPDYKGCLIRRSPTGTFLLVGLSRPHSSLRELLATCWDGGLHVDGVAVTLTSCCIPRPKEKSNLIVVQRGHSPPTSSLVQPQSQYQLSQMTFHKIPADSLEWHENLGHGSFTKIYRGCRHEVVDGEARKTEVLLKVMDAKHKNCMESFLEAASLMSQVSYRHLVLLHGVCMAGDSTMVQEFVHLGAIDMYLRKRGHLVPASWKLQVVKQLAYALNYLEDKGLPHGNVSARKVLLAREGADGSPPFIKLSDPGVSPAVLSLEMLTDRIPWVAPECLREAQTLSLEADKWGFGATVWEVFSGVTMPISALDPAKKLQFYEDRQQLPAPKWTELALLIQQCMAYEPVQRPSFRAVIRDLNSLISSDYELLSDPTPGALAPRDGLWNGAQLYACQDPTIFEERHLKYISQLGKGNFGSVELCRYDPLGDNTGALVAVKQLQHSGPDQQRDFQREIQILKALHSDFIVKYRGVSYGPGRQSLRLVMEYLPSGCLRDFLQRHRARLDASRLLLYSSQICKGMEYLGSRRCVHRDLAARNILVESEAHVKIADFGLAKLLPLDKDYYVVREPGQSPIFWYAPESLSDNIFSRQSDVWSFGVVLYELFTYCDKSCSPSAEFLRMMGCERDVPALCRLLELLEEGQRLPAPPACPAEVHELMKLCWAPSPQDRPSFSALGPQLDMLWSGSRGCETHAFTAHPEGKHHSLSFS

Consider `O=c1[nH]c(=O)n(C2CCC(CNCC(F)(F)F)CC2)c2c1cnc1[nH]ccc12` (stereo not shown) [A], for which, in experiment [1], 2400 nM corresponded to half-maximal inhibition (IC50).
For the molecule `N#CCCN(CCC#N)CC1CCC(n2c(=O)[nH]c(=O)c3cnc4[nH]ccc4c32)CC1` (stereo not shown) [Compound B], the IC50 (usually the point on the concentration scale where inhibition reaches its midpoint) in experiment [1] was 1300 nM.
Take `O=c1ccn(C2CCCCC2)c2c1cnc1[nH]ccc12` [Compound E, reference compound]: in experiment [2], the IC50 was determined as 1300 nM.
`O=C1CCN(C2CCC(CO)CC2)c2c1cnc1[nH]ccc21` (stereo not shown) [Compound F, reference compound] registered an IC50 in experiment [2] of 5900 nM.
`COC1CCC(n2ccc(=O)c3cnc4[nH]ccc4c32)CC1` (stereo not shown) [Compound G, reference compound] had an IC50 in experiment [2] of 6500 nM.
On to `Cc1nc(CN2CCC(n3ccc(=O)c4cnc5[nH]ccc5c43)CC2)cs1` [Compound J, reference compound], for which half-maximal inhibition in experiment [2] (IC50) was put at 7600 nM.
Take `N#CC[C@@H](NC[C@H]1CC[C@H](n2c(=O)[nH]c(=O)c3cnc4[nH]ccc4c32)CC1)C(F)(F)F` [Synthetic Example 1, (R)-3-({[trans-4-(2,4-Dioxo-2,3,4,7-tetrahydro-1H-pyrrolo[3′,2′:5,6]pyrido[4,3-d]pyrimidin-1-yl)cyclohexyl]methyl}amino)-4,4,4-trifluorobutanenitrile]: the half-maximal inhibitory concentration (IC50) against Tyk2 is 22 nM; at JAK2 it was 4.6 nM; against JAK3, 15 nM; against JAK1, 0.99 nM; in experiment [1], 390 nM.
For the molecule `O=c1[nH]c(=O)n([C@H]2CC[C@H](COCCC(F)(F)F)CC2)c2c1cnc1[nH]ccc12` [Synthetic Example 2, 1-{trans-4-[(3,3,3-Trifluoropropoxy)methyl]cyclohexyl}-1H-pyrrolo[3′,2′:5,6]pyrido[4,3-d]pyrimidine-2,4(3H,7H)-dione], the IC50 at Tyk2 amounted to 26 nM; on JAK2 it was 1.5 nM; on JAK3, 2.9 nM; against JAK1, 0.35 nM; in experiment [1] it was 270 nM.
Take `N#CC[C@@H](NC[C@H]1CC[C@H](n2ccc(=O)c3cnc4[nH]ccc4c32)CC1)C(F)(F)F` [Synthetic Example 3, (R)-4,4,4-Trifluoro-3-({[trans-4-(4-oxo-4,7-dihydro-1H-pyrrolo[2,3-h][1,6]naphthyridin-1-yl)cyclohexyl]methyl}amino)butanenitrile]: the IC50 against Tyk2 was found to be 18 nM; against JAK2, 5.1 nM; on JAK3, 10 nM; against JAK1, 1.7 nM; in experiment [2], 440 nM.
The like results for `Cc1cnn(C[C@H]2CC[C@H](n3ccc(=O)c4cnc5[nH]ccc5c43)CC2)c1` [Synthetic Example 4, 1-{trans-4-[(4-Methyl-1H-pyrazol-1-yl)methyl]cyclohexyl}-1H-pyrrolo[2,3-h][1,6]naphthyridin-4(7H)-one] were, in that order, 39 nM, 1.9 nM, 7.1 nM, 0.41 nM and 300 nM.
On to `O=c1ccn([C@H]2CC[C@H](COCC(F)(F)F)CC2)c2c1cnc1[nH]ccc12` [Synthetic Example 5, 1-{trans-4-[(2,2,2-Trifluoroethoxy)methyl]cyclohexyl}-1H-pyrrolo[2,3-h][1,6]naphthyridin-4(7H)-one], for which the IC50 at Tyk2 is 10 nM; against JAK3, 2.7 nM; against JAK1 it was 0.59 nM; in experiment [2] it was 170 nM.
`O=c1ccn([C@H]2CC[C@H](COCCC(F)(F)F)CC2)c2c1cnc1[nH]ccc12` [Synthetic Example 6, 1-{trans-4-[(3,3,3-Trifluoropropoxy)methyl]cyclohexyl}-1H-pyrrolo[2,3-h][1,6]naphthyridin-4(7H)-one]: the IC50 against Tyk2 turned out to be 19 nM; against JAK2, 1.6 nM; against JAK3 it was 2.5 nM; on JAK1, 0.68 nM; in experiment [2], 130 nM.
The like results for `N#CC[C@@H](OC[C@H]1CC[C@H](n2ccc(=O)c3cnc4[nH]ccc4c32)CC1)C(F)(F)F` [Synthetic Example 7, (R)-4,4,4-Trifluoro-3-{[trans-4-(4-oxo-4,7-dihydro-1H-pyrrolo[2,3-h][1,6]naphthyridin-1-yl)cyclohexyl]methoxy}butanenitrile] were, in that order, 11 nM, 2 nM, 5.1 nM, 0.74 nM and 150 nM.
